Here are results for six compounds from ChEMBL document CHEMBL1201862, “PubChem BioAssay data set” (2004).

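Where inhibition never reached the appropriate level, the endpoint shown equals the highest concentration tested. Otherwise, values were interpolated linearly from a five-concentration, 48-hour dose response in 96-well plates. GI50 marks 50% less growth.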 Active and inactive are the calls of the source. Cut-off read from the data, not from the text of the source: active = GI50 up to about 1.1 µM and inactive = higher.

Assay in all cases: inhibition of tumour cell growth, NCI panel, 48 h
Experiment [1] relates to LOX IMVI.
Experiment [2] has as its system NCI-H460.
The test system of experiment [3] is 786-0.
Experiment [4] deals with DU-145.
The test system of experiment [5] is HCT-15.
Experiment [6] deals with NCI-H23.
Experiment [7] concerns UACC-62.
The subject of experiment [8] is U-251.
Experiment [9] has as its system MCF7.
Experiment [10] relates to A549.
Experiment [11] concerns UO-31.
Experiment [12] deals with BT-549.
Experiment [13] deals with A498.
Experiment [14] deals with SF-295.
Experiment [15] relates to HCC 2998.
In experiment [16] the test system is SNB-75.
In experiment [17] the test system is NCI-H226.
The subject of experiment [18] is RXF 393.
Experiment [19] relates to Malme-3M.
Experiment [20] concerns SNB-19.

As for `CC(=O)NC1=C(C)C(=O)c2c(nc3n2CC[C@H]3OC(C)=O)C1=O`, the GI50 is 0.718 µM (active) in [1]; 2.95 µM (inactive) in [2]; 1.95 µM (inactive) in experiment [3]; 15.9 µM (inactive) in [4]; 3.58 µM in experiment [5]; 2.61 µM (inactive) in [6]. Moreover, the GI50 in experiment [7] is 1.69 µM (inactive); in experiment [8], 1.59 µM (inactive); in experiment [9], 1.49 µM (inactive); in experiment [10] it was 8.32 µM (inactive); in [11] it was 3.01 µM (inactive); in [12], 1.59 µM (inactive). Further, the GI50 in experiment [13] is 16.8 µM (inactive); in experiment [14], 2.1 µM (inactive); in experiment [15], 2.52 µM (inactive); in [16] it was 3.13 µM (inactive); in [17], 9.77 µM (inactive); in experiment [18], 1.73 µM (inactive). The GI50 in experiment [19] is 1.51 µM (inactive); in experiment [20] it was 5.5 µM (inactive).
As for `O/N=C1\Nc2ccccc2OCc2cc(Br)c(Br)cc2COc2ccccc2N\C1=N/O`, the GI50 is 10.1 µM (inactive) in experiment [1]; 13.2 µM (inactive) in experiment [2]; 10 µM (inactive) in experiment [3]; 13.6 µM (inactive) in experiment [4]; 5.86 µM in experiment [5]; 13.8 µM (inactive) in experiment [6]. Further, the GI50 in experiment [7] is 15.3 µM (inactive); in experiment [8] it was 13.8 µM (inactive); in [9], 6.81 µM (inactive); in [10], 17.6 µM (inactive); in experiment [11], 19.1 µM (inactive); in experiment [12] it was 15.1 µM (inactive). Further, the GI50 was 17.5 µM (inactive) in [13]; 16.5 µM (inactive) in experiment [14]; 7.71 µM (inactive) in [15]; 20.2 µM (inactive) in experiment [16]; 21.5 µM (inactive) in experiment [17]; 16.6 µM (inactive) in experiment [18]. For the same compound, the results for the GI50 in experiment [19] and in experiment [20] were 16.4 µM (inactive) and 10.7 µM (inactive), respectively.
Take `COc1cc(C2c3cc4c(cc3OC(Nc3ccccc3)C2C)OCO4)cc(OC)c1OC` (stereo not given): the GI50 in experiment [1] was 0.593 µM (active); in experiment [2], 0.524 µM (active); in experiment [3], 0.774 µM (active); in [4] it was 0.923 µM (active); in experiment [5], 0.494 µM; in [6], 0.991 µM (active). Besides, the GI50 in experiment [7] was 0.621 µM (active); in experiment [8] it was 0.392 µM (active); in experiment [9], 0.536 µM (active); in experiment [10], 1.11 µM (active); in experiment [11], 2.09 µM (inactive); in [12], 4.36 µM (inactive). The GI50 in experiment [13] was 0.324 µM (active); in experiment [14] it was 0.333 µM (active); in [15], 1.08 µM (active); in [16] it was 3.08 µM (inactive); in experiment [17], 1.13 µM (inactive); in experiment [18], 0.565 µM (active). Moreover, the GI50 is 0.166 µM (active) in experiment [19] and 1.19 µM (inactive) in experiment [20].
On to `CN(CC(N)=O)C(=O)N(CCCl)N=O` [SARCNU], for which the GI50 was > 100 µM (inactive) in experiment [1]; 41.1 µM (inactive) in [2]; 98.4 µM (inactive) in experiment [3]; > 100 µM (inactive) in [4]; greater than 100 µM in experiment [5]; > 100 µM (inactive) in [6]. Also, the GI50 in [7] is > 56.4 µM (inactive); in experiment [8], > 100 µM (inactive); in [9], > 100 µM (inactive); in experiment [10], > 100 µM (inactive); in experiment [11], > 100 µM (inactive); in experiment [12], > 100 µM (inactive). Also, the GI50 in experiment [13] was > 100 µM (inactive); in experiment [14], > 76.7 µM (inactive); in experiment [15] it was > 100 µM (inactive); in experiment [16], 38.6 µM (inactive); in experiment [17] it was 67.9 µM (inactive); in experiment [18] it was > 100 µM (inactive). In addition, the GI50 in experiment [19] is > 100 µM (inactive); in experiment [20] it was > 83.9 µM (inactive).
On to `Cc1ccc(S(=O)(=O)N/N=C2\C(=O)Nc3cc(O)c(C(=O)O)cc32)cc1`, for which the GI50 in experiment [1] is > 100 µM (inactive); in [2] it was > 100 µM (inactive); in experiment [3], > 100 µM (inactive); in experiment [4], > 100 µM (inactive); in experiment [5], greater than 100 µM; in experiment [6] it was > 100 µM (inactive). The GI50 in experiment [7], in experiment [8], in experiment [9], in [10], in experiment [11] and in experiment [12] was > 100 µM (inactive) each time. Also, the GI50 in experiment [13], in experiment [14], in [15], in experiment [16], in experiment [17] and in experiment [18] was > 100 µM (inactive) in each case. In addition, the GI50 in experiment [19] and in experiment [20] was > 100 µM (inactive) each time.
Turning to `CC(=O)NNc1nc(C)c(C(/C=C/c2ccc3c(c2)OCO3)=N/Nc2ccccc2)s1`, the GI50 is > 100 µM (inactive) in experiment [1]; > 100 µM (inactive) in experiment [2]; > 100 µM (inactive) in [3]; > 100 µM (inactive) in experiment [4]; greater than 100 µM in experiment [5]; > 100 µM (inactive) in [6]. For the same compound, the GI50 in experiment [7], in experiment [8], in experiment [9], in experiment [10], in [11] and in [12] was > 100 µM (inactive) each time. In addition, the GI50 in [13], in experiment [14], in experiment [15], in experiment [16], in experiment [17] and in experiment [18] was > 100 µM (inactive) throughout. In addition, the GI50 in experiment [19] and in [20] was > 100 µM (inactive) throughout.
